Reference: patent US20230123334A1, “AMINO LIPID COMPOUND, PREPARATION METHOD THEREFOR, AND APPLICATION THEREOF” (SHENZHEN SHENXIN BIOTECHNOLOGY CO., LTD., priority 2020, published 2023)

How the values were obtained:
[1] = system: HEK293 cells; assay: Preliminary screening as mRNA vectors, EGFP mRNA transfection of HEK293 cells; type: cell-based; conditions: HEK293 cells, 96-well plates, EGFP mRNA 50 ng per well; percentage of GFP fluorescent cells relative to total number of cells (Hoechst)
Procedure, shortened: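 HEK293 cells in DMEM plus 10% FBS transfected in 96-well format with 50 ng EGFP mRNA per well; Lipofectamine2000 served as positive control. Read-out is the percentage of GFP-fluorescent cells among total cells, counted by Hoechst nuclear stain.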

[2] = system: HEK293 cells; assay: Preliminary screening as DNA vectors, GFP transfection of HEK293 cells; type: cell-based; conditions: HEK293 cells; lipid/DOPE liposome with 75 ng plasmid DNA (psin-EGFP-IRES-Puro); number of cells expressing GFP divided by total number of nuclei (Hoechst)
Procedure, shortened: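 HEK293 cells in DMEM/10% FBS transfected with 75 ng EGFP plasmid per well complexed with amino lipid/DOPE liposomes in pH 5.6 sodium acetate. Hoechst nuclear stain added 20-24 h post-transfection, then cells cultured another 20-24 h. Confocal imaging gives GFP-positive cells as % of total nuclei.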

Compound	Absolute mRNA transfection efficiency in HEK293 cells [1] [%]	Absolute DNA transfection efficiency in HEK293 cells [2] [%]
CCCCCCCCCCCCN(CCCCCCCCCCCC)c1nc(NCCCCCCCCC)nc(NCCN2CCN(C)CC2)n1 [N9^2N12D5]	1.8	0.0
CCCCCCCCCCCCN(CCCCCCCCCCCC)c1nc(NCCCCCCCCC)nc(NCCCN(C)C)n1 [N9^2N12D6]	0.8	0.3
CCCCCCCCCCCCN(CCCCCCCCCCCC)c1nc(NCCCCCCCCC)nc(NCCN(CC)CC)n1 [N9^2N12D7]	0.2	0.0
CCCCCCCCCCCCN(CCCCCCCCCCCC)c1nc(NCCCCCCCCC)nc(NCCCN2CCOCC2)n1 [N9^2N12D8]	0.3	0.0
CCCCCCCCCCCCN(CCCCCCCCCCCC)c1nc(NCCCCCCCCC)nc(NCCCN2CCN(C)CC2)n1 [N9^2N12D9]	3.9	0.0
CCCCCCCCCCCCN(CCCCCCCCCCCC)c1nc(NCCCCCCCCC)nc(NCC2CCN(C)CC2)n1 [N9^2N12D10]	2.9	0.0
CCCCCCCCCCCCNc1nc(NCCN(C)C)nc(N(CCCCCCCCCCCC)CCCCCCCCCCCC)n1 [N12^2N12D1]	2.8	0.5
CCCCCCCCCCCCNc1nc(NCCN2CCOCC2)nc(N(CCCCCCCCCCCC)CCCCCCCCCCCC)n1 [N12^2N12D2]	0.3	0.4
CCCCCCCCCCCCNc1nc(NCCN2CCCC2)nc(N(CCCCCCCCCCCC)CCCCCCCCCCCC)n1 [N12^2N12D3]	5.8	3.2
CCCCCCCCCCCCNc1nc(NCCN2CCCCC2)nc(N(CCCCCCCCCCCC)CCCCCCCCCCCC)n1 [N12^2N12D4]	2.6	2.5
CCCCCCCCCCCCNc1nc(NCCN2CCN(C)CC2)nc(N(CCCCCCCCCCCC)CCCCCCCCCCCC)n1 [N12^2N12D5]	2.2	0.5
CCCCCCCCCCCCNc1nc(NCCCN(C)C)nc(N(CCCCCCCCCCCC)CCCCCCCCCCCC)n1 [N12^2N12D6]	1.2	3.6
CCCCCCCCCCCCNc1nc(NCCN(CC)CC)nc(N(CCCCCCCCCCCC)CCCCCCCCCCCC)n1 [N12^2N12D7]	2.0	2.2
CCCCCCCCCCCCNc1nc(NCCCN2CCOCC2)nc(N(CCCCCCCCCCCC)CCCCCCCCCCCC)n1 [N12^2N12D8]	3.2	0.6
CCCCCCCCCCCCNc1nc(NCCCN2CCN(C)CC2)nc(N(CCCCCCCCCCCC)CCCCCCCCCCCC)n1 [N12^2N12D9]	0.7	3.0
CCCCCCCCCCCCNc1nc(NCC2CCN(C)CC2)nc(N(CCCCCCCCCCCC)CCCCCCCCCCCC)n1 [N12^2N12D10]	0.9	0.7
CCCCCCCCCCCCCNc1nc(NCCN(C)C)nc(N(CCCCCCCCCCCC)CCCCCCCCCCCC)n1 [N13^2N12D1]	4.7	1.2
CCCCCCCCCCCCCNc1nc(NCCN2CCOCC2)nc(N(CCCCCCCCCCCC)CCCCCCCCCCCC)n1 [N13^2N12D2]	0.5	0.1
CCCCCCCCCCCCCNc1nc(NCCN2CCCC2)nc(N(CCCCCCCCCCCC)CCCCCCCCCCCC)n1 [N13^2N12D3]	7.3	0.6
CCCCCCCCCCCCCNc1nc(NCCN2CCCCC2)nc(N(CCCCCCCCCCCC)CCCCCCCCCCCC)n1 [N13^2N12D4]	4.5	0.8
CCCCCCCCCCCCCNc1nc(NCCN2CCN(C)CC2)nc(N(CCCCCCCCCCCC)CCCCCCCCCCCC)n1 [N13^2N12D5]	4.9	0.0
CCCCCCCCCCCCCNc1nc(NCCCN(C)C)nc(N(CCCCCCCCCCCC)CCCCCCCCCCCC)n1 [N13^2N12D6]	3.9	1.3
CCCCCCCCCCCCCNc1nc(NCCN(CC)CC)nc(N(CCCCCCCCCCCC)CCCCCCCCCCCC)n1 [N13^2N12D7]	2.9	0.2

Compound	Absolute mRNA transfection efficiency in HEK293 cells [1] [%]	Absolute DNA transfection efficiency in HEK293 cells [2] [%]
CCCCCCCCCCCCCNc1nc(NCCCN2CCOCC2)nc(N(CCCCCCCCCCCC)CCCCCCCCCCCC)n1 [N13^2N12D8]	2.3	0.0
CCCCCCCCCCCCCNc1nc(NCCCN2CCN(C)CC2)nc(N(CCCCCCCCCCCC)CCCCCCCCCCCC)n1 [N13^2N12D9]	2.3	1.7
CCCCCCCCCCCCCNc1nc(NCC2CCN(C)CC2)nc(N(CCCCCCCCCCCC)CCCCCCCCCCCC)n1 [N13^2N12D10]	0.0	0.0
CCCCCCCCCCCCCCCNc1nc(NCCN(C)C)nc(N(CCCCCCCCCCCC)CCCCCCCCCCCC)n1 [N15^2N12D1]	0.0	0.9
CCCCCCCCCCCCCCCNc1nc(NCCN2CCOCC2)nc(N(CCCCCCCCCCCC)CCCCCCCCCCCC)n1 [N15^2N12D2]	0.0	0.5
CCCCCCCCCCCCCCCNc1nc(NCCN2CCCC2)nc(N(CCCCCCCCCCCC)CCCCCCCCCCCC)n1 [N15^2N12D3]	0.0	2.4
CCCCCCCCCCCCCCCNc1nc(NCCN2CCCCC2)nc(N(CCCCCCCCCCCC)CCCCCCCCCCCC)n1 [N15^2N12D4]	2.9	2.1
CCCCCCCCCCCCCCCNc1nc(NCCN2CCN(C)CC2)nc(N(CCCCCCCCCCCC)CCCCCCCCCCCC)n1 [N15^2N12D5]	3.7	2.8
CCCCCCCCCCCCCCCNc1nc(NCCCN(C)C)nc(N(CCCCCCCCCCCC)CCCCCCCCCCCC)n1 [N15^2N12D6]	9.0	6.3
CCCCCCCCCCCCCCCNc1nc(NCCN(CC)CC)nc(N(CCCCCCCCCCCC)CCCCCCCCCCCC)n1 [N15^2N12D7]	0.0	1.3
CCCCCCCCCCCCCCCNc1nc(NCCCN2CCOCC2)nc(N(CCCCCCCCCCCC)CCCCCCCCCCCC)n1 [N15^2N12D8]	0.9	0.9
CCCCCCCCCCCCCCCNc1nc(NCCCN2CCN(C)CC2)nc(N(CCCCCCCCCCCC)CCCCCCCCCCCC)n1 [N15^2N12D9]	0.0	1.7
CCCCCCCCCCCCCCCNc1nc(NCC2CCN(C)CC2)nc(N(CCCCCCCCCCCC)CCCCCCCCCCCC)n1 [N15^2N12D10]	3.5	0.0
CCCCCCCCCCCCCCCCNc1nc(NCCN(C)C)nc(N(CCCCCCCCCCCC)CCCCCCCCCCCC)n1 [N16^2N12D1]	3.4	0.0
CCCCCCCCCCCCCCCCNc1nc(NCCN2CCOCC2)nc(N(CCCCCCCCCCCC)CCCCCCCCCCCC)n1 [N16^2N12D2]	0.0	0.4
CCCCCCCCCCCCCCCCNc1nc(NCCN2CCCC2)nc(N(CCCCCCCCCCCC)CCCCCCCCCCCC)n1 [N16^2N12D3]	4.0	2.0
CCCCCCCCCCCCCCCCNc1nc(NCCN2CCCCC2)nc(N(CCCCCCCCCCCC)CCCCCCCCCCCC)n1 [N16^2N12D4]	0.0	3.2
CCCCCCCCCCCCCCCCNc1nc(NCCN2CCN(C)CC2)nc(N(CCCCCCCCCCCC)CCCCCCCCCCCC)n1 [N16^2N12D5]	0.0	0.6
CCCCCCCCCCCCCCCCNc1nc(NCCCN(C)C)nc(N(CCCCCCCCCCCC)CCCCCCCCCCCC)n1 [N16^2N12D6]	0.0	0.5
CCCCCCCCCCCCCCCCNc1nc(NCCN(CC)CC)nc(N(CCCCCCCCCCCC)CCCCCCCCCCCC)n1 [N16^2N12D7]	3.0	1.1
CCCCCCCCCCCCCCCCNc1nc(NCCCN2CCOCC2)nc(N(CCCCCCCCCCCC)CCCCCCCCCCCC)n1 [N16^2N12D8]	4.3	0.4
CCCCCCCCCCCCCCCCNc1nc(NCCCN2CCN(C)CC2)nc(N(CCCCCCCCCCCC)CCCCCCCCCCCC)n1 [N16^2N12D9]	0.0	0.5
